Measured values reported in patent US20190373936A1, “COMPOSITION, METHOD FOR PRODUCING THE SAME AND USE THEREOF” (INFINITUS (CHINA) COMPANY LTD., priority 2018, published 2019).

Tests used:
[1] = system: SD rats of combined hyperlipidemia model; assay: Function of facilitating lowering blood lipid: serum lipid indexes by ELISA in combined hyperlipidemia SD rat model; assay type: in vivo
Source text: (§1) In the present disclosure, reference was made to the method for testing the function of facilitating lowering blood-lipid in the Technical specification for health care food inspection and evaluation (2012 Updated Edition). SPF grade male SD rats were used as experimental animals. After the adaption period, an animal model of the combined hyperlipidemia was established, and the rats were randomly divided into groups according to TC level. Three dosage groups were continuously administered with the composition provided by the present disclosure by gavage at a dosage of 500 mg/kg·BW (equaled to 5 times of recommendation amount for human), 1000 mg/kg·BW (equaled to 10 times of recommendation amount for human) and 2500 mg/kg·BW (equaled to 25 times of recommendation amount for human), respectively. The blank control group and the model control group were administered with the same volume of distilled water by gavage. Each group was weighed regularly. 30 days after the administration, blood samples were collected without fasting, and levels of TC, TG, HDL-C, LDL-C, ox-HDL, ox-LDL, apo-A1 and apo-β were tested.
Name: SPF grade male SD rats, body weight 170˜220 g
High-fat diet: maintenance diet with 20.0% sucrose, 15% lard, 1.2% cholesterol, 0.2% sodium cholate, appropriate amounts of casein, calcium hydrogen phosphate, rock powders and so on. Except for crude fat, water content, crude protein, crude fat, crude fiber, ash, calcium, phosphate and calcium:phosphate ratio reached the national standard for maintenance diet.
Surgical instruments, centrifuges, centrifuge tubes, electronic balances, punchers, gavage needles, enzyme-labeled instruments, heparin sodium, anesthetic, formalin, refrigerators, vortex mixer, weighing scale, serum total cholesterol (TC) ELISA kit, serum triglyceride (TG) ELISA kit, serum high-density lipoprotein cholesterol (HDL-C) ELISA kit, serum low-density lipoprotein cholesterol (LDL-C) ELISA kit, serum oxidized high-density lipoprotein cholesterol (ox-HDL-C) ELISA kit, serum oxidized low-density lipoprotein cholesterol (ox-LDL-C) ELISA kit, serum apolipoprotein A1 (apo-A1) ELISA kit, and serum apolipoprotein (apo-β) ELISA kit.
There were three dosage groups, two positive control groups, one blank control group and one model control group. In low-dosage group, the test sample was administered at a dosage of 5 times of the recommendation amount for human (500 mg/kg), and in middle-dosage and high-dosage groups, the dosages equaled to 10 times (1000 mg/kg) and 25 times (2500 mg/kg) of the recommendation amount for human. The dosage of the positive control group equaled to 5 times (omega: 150 mg/kg; and atorvastatin calcium: 0.83 mg/kg) of the recommendation amount for human. The blank control group and the model control group were administered with equal amount of distilled water at the same volume by gavage. The duration of the administration of the test sample was generally 30 days.
The compositions provided by the examples 1˜3, the powder formulations provided by the examples 4˜6 were accurately weighed, and an appropriate amount of distilled water was added to prepare the low-, middle- and high-dosages samples. The samples were prepared right before use.
(1) Adaptive period: In a barrier system, the rats were fed on maintenance diet and observed for 5˜7 days.
The rats were randomly divided into 22 groups, 6 per group. One group was fed on the maintenance diet as the blank control group. The other 21 groups were fed on high-fat diet as the model control group. The rats were weighed once a week.
20 days after the model control group was fed on high-fat diet, rats in the blank control group and the model control groups were subjected to blood collection (1˜1.5 mL of blood was collected from the tail vein) without fasting. After blood collection, the serum was quickly separated to a new centrifugal tube, stored at −20° C. before test. […]

[2] = Body weight of SD rats fed high-fat diet during administration of test sample; assay type: in vivo; conditions: positive control groups (omega 150 mg/kg; atorvastatin calcium 0.83 mg/kg), 30 days
Source text: as §1, with “The blank control group and the model control group were administered with the same volume of distilled water by gavage. Each group was weighed regularly. 30 days after the administration, blood samples were collected without fasting, and levels of TC, TG, HDL-C, LDL-C, ox-HDL, ox-LDL, apo-A1 and apo-β were tested.” left out
After grouping, each dosage group was orally administered with the test sample every day, the two positive groups were respectively orally administered with positive control samples (diluted Omega solution and diluted atorvastatin calcium solution), and the blank control group and the model control group were administered with the same volume of distilled water. […] After blood collection, the serum was quickly separated, and levels of TC, TG, HDL-C, LDL-C, ox-HDL-C, ox-LDL-C, apo-A1 and apo-β in serum were measured.

[3] = positive control groups (omega 150 mg/kg; atorvastatin calcium 0.83 mg/kg), 30 days

**Q.** What does the source list for `CC(C)c1c(C(=O)Nc2ccccc2)c(-c2ccccc2)c(-c2ccc(F)cc2)n1CC[C@@H](O)C[C@@H](O)CC(=O)[O-].CC(C)c1c(C(=O)Nc2ccccc2)c(-c2ccccc2)c(-c2ccc(F)cc2)n1CC[C@@H](O)C[C@@H](O)CC(=O)[O-].[Ca+2]` [Atorvastatin Calcium, atorvastatin calcium]?
**A.** Effect on Apo-β content in serum of SD rats ([1]; compared with the model control group): decreased; Apo-A1 levels in serum (Mean Value ± Standard Deviation) [1, 3]: 2693.75 ± 435.48 µg/mL; Apo-β levels in serum (Mean Value ± Standard Deviation) [1, 3]: 735.00 ± 264.71 µg/mL; HDL-C levels in serum (Mean Value ± Standard Deviation) [1, 3]: 919.74 ± 150.63 µmol/L; LDL-C levels in serum (Mean Value ± Standard Deviation) [1, 3]: 853.24 ± 235.19 µmol/L; Ox-HDL-C levels in serum (Mean Value ± Standard Deviation) [1, 3]: 35.88 ± 7.30 µg/L; Ox-LDL-C levels in serum (Mean Value ± Standard Deviation) [1, 3]: 45.44 ± 7.40 µg/L; TC levels in serum (Mean Value ± Standard Deviation) [1, 3]: 1117.14 ± 171.07 µmol/L; TG levels in serum (Mean Value ± Standard Deviation) [1, 3]: 189.71 ± 45.83 µmol/L; Final Weight (Mean Value ± Standard Deviation) [2]: 442.00 ± 40.77
